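Each compound was tested at five concentrations against cells in 96-well plates for 48 hours. GI50: concentration for 50% inhibition of growth. At the TGI there is no net growth.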
Tests used:
Assay in all cases: growth of human tumour cells (NCI), 48 h
[1] = system: NCI-H522 lung
[2] = system: CAKI-1 renal
[3] = system: SK-MEL-5 melanoma
[4] = system: OVCAR-5 ovarian
[5] = system: SNB-75 CNS
[6] = system: M14 melanoma
[7] = system: PC-3 prostate
[8] = system: DU-145 prostate
[9] = system: HS 578T breast
[10] = system: MCF7 breast

## O=C(/C=C/c1cc(Cl)cc(Cl)c1O)c1cccc(O)c1
[1]
  TGI: > 100 µM
[2]
  TGI: > 100 µM
[3]
  TGI: > 100 µM
[4]
  TGI: 28.3 µM
[5]
  TGI: 94.4 µM
[6]
  TGI: > 100 µM

## O=C(NCCCCCCCCCCCCNC(=O)c1cccc2ccccc12)c1cccc2ccccc12
[1]
  TGI: > 100 µM
[2]
  TGI: 68.2 µM
[3]
  TGI: > 100 µM
[4]
  TGI: > 100 µM
[5]
  TGI: > 54.6 µM
[6]
  TGI: > 100 µM

## CC(C)c1[nH]nc(C(N)=O)c1N=NN(C)C
[1]
  TGI: 67.8 µM
[2]
  TGI: 65.4 µM
[7]
  TGI: > 100 µM
[3]
  TGI: > 100 µM
[8]
  TGI: > 100 µM
[5]
  TGI: > 100 µM
[9]
  TGI: > 100 µM
[6]
  TGI: > 100 µM
[10]
  TGI: > 100 µM

## O=C(Nc1ccc2[nH]nc(-c3ccncc3)c2c1)[C@@H]1CCN(CC(=O)N2CCN(c3ccc(-c4ncccn4)cc3)CC2)C1
[1]
  GI50: 7.27 µM
  TGI: > 100 µM
[7]
  GI50: 13.7 µM
  TGI: > 100 µM
[3]
  GI50: 0.607 µM
  TGI: > 100 µM
[8]
  GI50: 7.58 µM
  TGI: > 100 µM
[5]
  GI50: 18.2 µM
  TGI: > 90.8 µM
[9]
  GI50: > 100 µM
  TGI: > 100 µM
[6]
  GI50: 0.0282 µM
  TGI: 0.289 µM
[10]
  GI50: > 100 µM
  TGI: > 100 µM

## COc1cc(/C=C\c2cc(OC)c(OC)c(OC)c2)cc(N/C=C\C(=O)c2ccc(OC(F)(F)F)cc2)c1OC
[1]
  GI50: 1.96 µM
  TGI: 6.19 µM
[2]
  GI50: 4.96 µM
  TGI: > 100 µM
[3]
  GI50: 3.74 µM
  TGI: > 100 µM
[4]
  GI50: 8.2 µM
  TGI: > 100 µM
[8]
  GI50: 4.11 µM
  TGI: > 100 µM
[5]
  GI50: 2.65 µM
  TGI: 24 µM
[9]
  GI50: 6.44 µM
  TGI: > 100 µM
[6]
  GI50: 3.46 µM
  TGI: > 100 µM
[10]
  GI50: 4.08 µM
  TGI: > 100 µM

## O=C1NC(Cc2ccc(O)cc2)C(=O)N2CCCC12 (configuration not stated)
[1]
  TGI: > 100 µM
[2]
  TGI: > 100 µM
[3]
  TGI: > 100 µM
[4]
  TGI: > 100 µM
[5]
  TGI: > 100 µM
[6]
  TGI: > 100 µM

## Cc1nc(-n2nc(-c3ccccc3)cc2-c2ccccc2)sc1C(=O)/C=C/c1ccc(/C=C/C(=O)c2sc(-n3nc(-c4ccccc4)cc3-c3ccccc3)nc2C)cc1
[1]
  TGI: 34.4 µM
[2]
  TGI: 51.6 µM
[4]
  TGI: 57.5 µM
[6]
  TGI: 36.7 µM

## CCC(C)[C@H]1O[C@]2(CC[C@@H]1C)C[C@@H]1C[C@@H](C/C=C(\C)[C@@H](OC3C[C@H](OC)C(O[C@H]4C[C@H](OC)[C@@H](O)[C@H](C)O4)[C@H](C)O3)[C@@H](C)/C=C/C=C3\CO[C@@H]4[C@H](O)C(C)=C[C@@H](C(=O)O1)[C@]34O)O2 (some centres not stated)
[2]
  GI50: 2.6 µM
  TGI: 11.2 µM
[7]
  GI50: 2.64 µM
  TGI: 12.8 µM
[3]
  GI50: 1.49 µM
  TGI: 2.82 µM
[4]
  GI50: 2.05 µM
  TGI: 5.67 µM
[8]
  GI50: 5.59 µM
  TGI: 18.1 µM
[5]
  GI50: 2.69 µM
  TGI: 7.56 µM
[9]
  GI50: 3.76 µM
  TGI: 20.7 µM
[6]
  GI50: 3.15 µM
  TGI: 11.2 µM
[10]
  GI50: 3.02 µM
  TGI: 10.8 µM

## O=C(CC(Cl)=C(Cl)Cl)Nc1ccccc1
[1]
  GI50: > 100 µM
  TGI: > 100 µM
[7]
  GI50: > 100 µM
  TGI: > 100 µM
[3]
  GI50: > 100 µM
  TGI: > 100 µM
[4]
  GI50: > 100 µM
  TGI: > 100 µM
[8]
  GI50: > 100 µM
  TGI: > 100 µM
[9]
  GI50: > 100 µM
  TGI: > 100 µM
[6]
  GI50: > 100 µM
  TGI: > 100 µM
[10]
  GI50: > 100 µM
  TGI: > 100 µM

## COc1cc(Nc2nc3cc(N)cc(N)c3nc2-c2ccccc2)cc(OC)c1OC
[1]
  GI50: 18.2 µM
  TGI: 53.1 µM
[2]
  GI50: 15.5 µM
  TGI: 48.5 µM
[7]
  GI50: 14.2 µM
  TGI: 59.3 µM
[3]
  GI50: 13 µM
  TGI: 27.8 µM
[4]
  GI50: 21.3 µM
  TGI: 46.7 µM
[8]
  GI50: 21.9 µM
  TGI: 74 µM
[9]
  GI50: 15 µM
  TGI: 78.1 µM
[6]
  GI50: 19.6 µM
  TGI: 44.9 µM
[10]
  GI50: 25.5 µM
  TGI: 94.5 µM

## N.N.N.N.N.[Co+3].[I-].[N-]=[N+]=[N-]
[1]
  GI50: > 100 µM
  TGI: > 100 µM
[3]
  GI50: > 100 µM
  TGI: > 100 µM
[4]
  GI50: > 100 µM
  TGI: > 100 µM
[5]
  GI50: 76.9 µM
  TGI: > 100 µM
[6]
  GI50: > 100 µM
  TGI: > 100 µM

## O=C(N/C(=C\c1ccc(Cl)cc1)c1nc2ccccc2[nH]1)c1ccccc1
[1]
  TGI: 30.7 µM
[2]
  TGI: 54.5 µM
[3]
  TGI: 35.3 µM
[4]
  TGI: 85 µM
[5]
  TGI: 47.2 µM
[6]
  TGI: 34.1 µM

## CN(CCN1C(=O)c2cc([N+](=O)[O-])cc3cc([N+](=O)[O-])cc(c23)C1=O)CCN1C(=O)c2cc([N+](=O)[O-])cc3cc([N+](=O)[O-])cc(c23)C1=O
[1]
  TGI: 1.86 µM
[2]
  TGI: 0.618 µM
[3]
  TGI: 8.49 µM
[4]
  TGI: > 45.6 µM
[5]
  TGI: > 100 µM
[6]
  TGI: 9.23 µM

## CN(C)C=Nc1ccn(CCO)c(=O)n1
[1]
  TGI: > 100 µM
[3]
  TGI: > 100 µM
[4]
  TGI: > 100 µM
[5]
  TGI: > 100 µM
[6]
  TGI: > 100 µM

## COc1ccc(C/C(=N/O)C(=O)NCCc2cc(Br)c(OCCCN(C)C)c(Br)c2)cc1Br
[1]
  TGI: 31.5 µM
[2]
  TGI: 69.4 µM
[4]
  TGI: 49.2 µM
[5]
  TGI: 55 µM
[6]
  TGI: 31.6 µM

## Cc1c(Cl)cccc1NC(=O)C(=O)C(C(=O)c1ccccc1-c1ccccc1)C1OC(=O)c2ccccc21 (configuration not stated)
[1]
  TGI: 26.4 µM
[3]
  TGI: 29.9 µM
[4]
  TGI: 46.9 µM
[5]
  TGI: 42.1 µM
[6]
  TGI: 36.3 µM

## CCOC(=O)/C(=C/N1CCN(C(=O)c2ccco2)C1=S)C(=O)c1ccccc1
[2]
  GI50: 15.9 µM
  TGI: > 50 µM
[7]
  GI50: 19.4 µM
  TGI: > 50 µM
[3]
  GI50: < 0.005 µM
  TGI: < 0.005 µM
[8]
  GI50: 8.04 µM
  TGI: 24.1 µM
[5]
  GI50: 46 µM
  TGI: > 50 µM
[6]
  GI50: 8.86 µM
  TGI: 21 µM

## Cc1cn(C2CC(O)C(COC(=O)c3ccccc3)O2)c(=O)[nH]c1=O (configuration not stated)
[1]
  TGI: > 100 µM
[2]
  TGI: > 100 µM
[3]
  TGI: > 100 µM
[4]
  TGI: > 100 µM
[6]
  TGI: > 100 µM

## CCC(C)CCOC(=O)c1ccc(N=Cc2ccc(C=Nc3ccc(C(=O)OCCC(C)CC)cc3)cc2)cc1 (configuration not stated)
[1]
  TGI: > 100 µM
[2]
  TGI: > 100 µM
[3]
  TGI: > 100 µM
[4]
  TGI: > 100 µM
[5]
  TGI: > 100 µM
[6]
  TGI: > 100 µM

## Cc1cc(NCCCCCCCCNc2cc(C)nc3cc(N)ccc23)c2ccc(N)cc2n1
[1]
  TGI: 30.8 µM
[2]
  TGI: > 100 µM
[3]
  TGI: 34.8 µM
[4]
  TGI: > 100 µM
[5]
  TGI: 69.1 µM
[6]
  TGI: 35.6 µM

## COC(=O)C(Cc1cc(OC)c(OC)c(OC)c1)C(=O)OC
[1]
  TGI: > 320 µM
[2]
  TGI: > 320 µM
[3]
  TGI: > 320 µM
[4]
  TGI: > 320 µM
